Reference: patent publication US7767659B2, “Synthesis of naturally occurring ecteinascidins and related compounds” (Pharma Mar, S.A., priority 2002, dated 2010)
Where two headings read alike, the source gives them in different places.

Tests used:
HT-29 = test: cells; details: Homo sapiens, HT-29, 48 h
Method: (§1) This form of the assay employs 96 well cell culture microplates of 9 mm diameter (Faircloth, 1988; Mosmann, 1983). Most of the cell lines are obtained from American Type Culture Collection (ATCC) derived from different human cancer types.
(§2) Cells are maintained in RPMI 1640 10% FBS, supplemented with 0.1 g/l penicillin and 0.1 g/l streptomycin sulfate and then incubated at 37° C., 5% CO2 and 98% humidity. For the experiments, cells were harvested from subconfluent cultures using trypsin and resuspended in fresh medium before plating.
(§3) Cells are seeded in 96 well microtiter plates, at 5×10^3 cells per well in aliquots of 195 μl medium, and they are allowed to attach to the plate surface by growing in drug free medium for 18 hours. Afterward, samples are added in aliquots of 5 μl in a ranging from 10 to 10^−8 μg/ml, dissolved in DMSO/EtOH/PBS (0.5:0.5:99). After 48 hours exposure, the antitumor effect are measured by the SRB methodology: cells are fixed by adding 50 μl of cold 50% (wt/vol) trichloroacetic acid (TCA) and incubating for 60 minutes at 4° C. Plates are washed with deionized water and dried. One hundred μl of SRB solution (0.4% wt/vol in 1% acetic acid) is added to each microtiter well and incubated for 10 minutes at room temperature. Unbound SRB is removed by washing with 1% acetic acid. Plates are air dried and bound stain is solubilzed with Tris buffer. Optical densities are read on a automated spectrophotometric plate reader at a single wavelength of 490 nm.
(§4) The values for mean +/− SD of data from triplicate wells are calculated. Some parameters for cellular responses can be calculated: GI=growth inhibition, TGI=total growth inhibition (cytostatic effect) and LC=cell killing (cytotoxic effect).

A-549 = test: cells; details: Homo sapiens, A549, 48 h
Method: as §1, §2, §3, §4

LoVo = test: cells; details: Homo sapiens, LoVo, 48 h; for GI50: read-out: LOVO GI50; for CC50: read-out: LOVO LC50; for IC (TGI): read-out: LOVO TGI
Method: as §1, §2, §3, §4

SK-BR-3 = test: Inhibition of cells growth by colorimetric assay (SRB); details: Homo sapiens, SK-BR-3, 48 h
Method: as §1, §2, §3, §4

SK-MEL-28 = test: as above; details: Homo sapiens, SK-MEL-28, 48 h
Method: as §1, §2, §3, §4

HeLa = test: as above; details: Homo sapiens, HeLa, 48 h; for GI50: read-out: HELA GI50; for CC50: read-out: HELA LC50; for IC (TGI): read-out: HELA TGI
Method: as §1, §2, §3, §4

HeLa-APL = test: as above; details: Homo sapiens, 48 h; for GI50: read-out: HELA-APL GI50; for CC50: read-out: HELA-APL LC50; for IC (TGI): read-out: HELA-APL TGI
Method: as §1, §2, §3, §4

LNCaP = test: as above; details: Homo sapiens, LNCaP, 48 h
Method: as §1, §2, §3, §4

DU-145 = test: as above; details: Homo sapiens, DU-145, 48 h
Method: as §1, §2, §3, §4

IGROV-1 = test: as above; details: Homo sapiens, IGROV-1, 48 h; for GI50: read-out: IGROV GI50; for CC50: read-out: IGROV LC50; for IC (TGI): read-out: IGROV TGI
Method: as §1, §2, §3, §4

K-562 = test: as above; details: Homo sapiens, K562, 48 h; for GI50: read-out: K562 GI50; for CC50: read-out: K562 LC50; for IC (TGI): read-out: K562 TGI
Method: as §1, §2, §3, §4

PANC-1 = test: as above; details: Homo sapiens, PANC-1, 48 h; for GI50: read-out: PANC-1 GI50; for CC50: read-out: PANC-1 LC50; for IC (TGI): read-out: PANC-1 TGI
Method: as §1, §2, §3, §4

LoVo-Dox = test: as above; details: Homo sapiens, 48 h; for GI50: read-out: LOVO-DOX GI50; for CC50: read-out: LOVO-DOX LC50; for IC (TGI): read-out: LOVO-DOX TGI
Method: as §1, §2, §3, §4

IGROV-ET = test: as above; details: Homo sapiens, 48 h; for GI50: read-out: IGROV-ET GI50; for CC50: read-out: IGROV-ET LC50; for IC (TGI): read-out: IGROV-ET TGI
Method: as §1, §2, §3, §4

| SMILES | GI50 (LoVo) [nM] | CC50 (LoVo) [nM] | IC (TGI) (LoVo) [nM] | GI50 (HeLa) [nM] | CC50 (HeLa) [nM] | IC (TGI) (HeLa) [nM] | GI50 (HeLa-APL) [nM] | CC50 (HeLa-APL) [nM] | IC (TGI) (HeLa-APL) [nM] | GI50 (IGROV-1) [nM] | CC50 (IGROV-1) [nM] | IC (TGI) (IGROV-1) [nM] | GI50 (K-562) [nM] | CC50 (K-562) [nM] | IC (TGI) (K-562) [nM] | GI50 (PANC-1) [nM] | CC50 (PANC-1) [nM] | IC (TGI) (PANC-1) [nM] | GI50 (LoVo-Dox) [nM] | CC50 (LoVo-Dox) [nM] | also measured |
| --- | --- | --- | --- | --- | --- | --- | --- | --- | --- | --- | --- | --- | --- | --- | --- | --- | --- | --- | --- | --- | --- |
| CCC(=O)NC1CS[C@@H]2c3c(OC(C)=O)c(C)c4c(c3[C@H](COC1=O)N1C2[C@@H]2N[C@@H](Cc3cc(C)c(OC)c(O)c32)[C@@H]1C#N)OCO4 (stereo partly drawn) [compound 33] | 19.9 | 145 | 53.6 | 5.02 | 96.9 | 16.1 | 5.24 | 115 | 19.1 | 98.5 | 1580 | 426 | 5.49 | 2830 | 159 | 19.9 | 4510 | 122 | 367 | 5900 | GI50 (HT-29; read-out: GI50 HT29): 17.3 nM; CC50 (HT-29; read-out: LC50 HT29): 9810 nM; IC (TGI) (HT-29; read-out: TGI HT29): 271 nM; GI50 (A-549; read-out: GI50 A549): 26.2 nM; CC50 (A-549; read-out: LC50 A549): 149 nM; IC (TGI) (A-549; read-out: TGI A549): 62.4 nM; GI50 (SK-BR-3; read-out: SK-BR3 GI50): 4.83 nM; CC50 (SK-BR-3; read-out: SK-BR3 LC50): 385 nM; IC (TGI) (SK-BR-3; read-out: SK-BR3 TGI): 13.9 nM; GI50 (SK-MEL-28; read-out: GI50 MEL-28): 12.8 nM; CC50 (SK-MEL-28; read-out: LC50 MEL-28): 97.9 nM; IC (TGI) (SK-MEL-28; read-out: TGI MEL-28): 36.7 nM; GI50 (LNCaP; read-out: GI50 LNCAP): 2.86 nM; CC50 (LNCaP; read-out: LC50 LNCAP): 11.1 nM; IC (TGI) (LNCaP; read-out: TGI LNCAP): 5.64 nM; GI50 (DU-145; read-out: GI50 DU145): 8.02 nM; CC50 (DU-145; read-out: LC50 DU145): 4410 nM; IC (TGI) (DU-145; read-out: TGI DU145): 15.6 nM; IC (TGI) (LoVo-Dox): 940 nM |
| C=CCN1[C@@H]2c3c(cc(C)c(OC)c3O)C[C@H]1[C@H](C#N)N1C2[C@@H]2SC[C@]3(NCCc4c3[nH]c3ccccc43)C(=O)OC[C@H]1c1c3c(c(C)c(OC(C)=O)c12)OCO3 (stereo partly drawn) [compound 55] | 151 | 837 | 356 | 148 | 887 | 363 | 111 | 915 | 323 | 69.2 | 1580 | 271 | 58.4 | 1040 | 272 | 148 | 12700 | 1900 | 333 | 12700 | GI50 (HT-29; read-out: HT29 GI50): 75.7 nM; CC50 (HT-29; read-out: HT29 LC50): 12700 nM; IC (TGI) (HT-29; read-out: HT29 TGI): 1810 nM; GI50 (A-549; read-out: A549 GI50): 68.4 nM; CC50 (A-549; read-out: A549 LC50): 1220 nM; IC (TGI) (A-549; read-out: A549 TGI): 286 nM; GI50 (SK-MEL-28; read-out: MEL-28 GI50): 88.6 nM; CC50 (SK-MEL-28; read-out: MEL-28 LC50): 698 nM; IC (TGI) (SK-MEL-28; read-out: MEL-28 TGI): 265 nM; GI50 (LNCaP; read-out: LNCAP GI50): 17.1 nM; CC50 (LNCaP; read-out: LNCAP LC50): 75.7 nM; IC (TGI) (LNCaP; read-out: LNCAP TGI): 36 nM; GI50 (DU-145; read-out: DU145 GI50): 59 nM; CC50 (DU-145; read-out: DU145 LC50): 12700 nM; IC (TGI) (DU-145; read-out: DU145 TGI): 247 nM; GI50 (IGROV-ET): 248 nM; CC50 (IGROV-ET): 4180 nM; IC (TGI) (IGROV-ET): 624 nM; IC (TGI) (LoVo-Dox): 1570 nM |
| COc1c(C)cc2c(c1O)[C@H]1N[C@@H](C2)[C@H](C#N)N2C1[C@@H]1SC[C@]3(NCCc4c3[nH]c3ccccc43)C(=O)OC[C@H]2c2c3c(c(C)c(OC(C)=O)c21)OCO3 (stereo partly drawn) [compound 59] | 5.8 | 1190 | 23.3 | 2.44 | 10.6 | 5.08 | 3.32 | 59.2 | 7.69 | 3.01 | 110 | 7.33 | 1.8 | 3290 | 9.83 | 4.76 | 3750 | 42.3 | 123 | 3930 | GI50 (HT-29; read-out: HT29 GI50): 3.83 nM; CC50 (HT-29; read-out: HT29 LC50): 4280 nM; IC (TGI) (HT-29; read-out: HT29 TGI): 16 nM; GI50 (A-549; read-out: A549 GI50): 15.9 nM; CC50 (A-549; read-out: A549 LC50): 273 nM; IC (TGI) (A-549; read-out: A549 TGI): 48.5 nM; GI50 (SK-MEL-28; read-out: MEL-28 GI50): 3.56 nM; CC50 (SK-MEL-28; read-out: MEL-28 LC50): 3040 nM; IC (TGI) (SK-MEL-28; read-out: MEL-28 TGI): 11 nM; GI50 (LNCaP; read-out: LNCAP GI50): 1.03 nM; CC50 (LNCaP; read-out: LNCAP LC50): 6.43 nM; IC (TGI) (LNCaP; read-out: LNCAP TGI): 2.67 nM; GI50 (DU-145; read-out: DU145 GI50): 4.09 nM; CC50 (DU-145; read-out: DU145 LC50): 1640 nM; IC (TGI) (DU-145; read-out: DU145 TGI): 10.2 nM; GI50 (IGROV-ET): 4.48 nM; CC50 (IGROV-ET): 3040 nM; IC (TGI) (IGROV-ET): 107 nM; IC (TGI) (LoVo-Dox): 709 nM |
